Data reported in US10961401B2, “UV cured benzophenone terminated quaternary ammonium antimicrobials for surfaces” (NANO SAFE COATINGS INCORPORATED, priority 2012, dated 2021).
Counter-ions that a name gives are not always drawn.

How the values were obtained:
Pseudomonas spp. CTO7 = assay: Flow-cell antimicrobial test: bacterial cell count in effluent of coated silicone tubing; type: cell-based; conditions: 100 μL effluent plated on 10% TSA
Procedure: Preparation of Self Assembled Monolayers on Silicone Tubing
Silicone tubing was rinsed with IPA and H2O using a peristaltic pump then dried by running air through the tubes. A 0.05% (w/v) solution of 8a in H2O and a 0.5% (w/v) solution of 4c in H2O/IPA were prepared. Tubes were coated using the peristaltic pump and filled tubes were irradiated using a UV fumehood for 25 minutes. Coated tubes were then rinsed with H2O to remove any unbound materials.
1.5% (w/v) solutions of 8a and 4c in dichloromethane (DCM) were prepared. These solutions were pumped through clean silicone tubing using a syringe and irradiated using a UV quartz lamp for 30 minutes.
Antimicrobial Test Method
The antimicrobial efficacy was determined using a flow-cell method as described in Markison C and Swan J, “The Effect of Humidity on the Survival of MRSA on Hard Surfaces”, Indoor and Built Environment, 2006, 15(1), 85-91. A 1% tryptic soy broth and an inoculum of 10×10^4 cfu/mL of Pseudomonas spp. CTO7 were pumped through silicone tubing coated with 8a, 4c and a control tube for 30 hours. The tubes were then left stagnant for a period of 2 hours after which only the 1% TSB was allowed to flow through the tubes for 48 hours. During these 48 hours effluent samples of 100 μL were collected periodically and plated on 10% trypticase soy agar (TSA) in a dilution series up to 10×10^4. Sampling periods were time zero, 3 hours, 6 hours, 24 hours, 27 hours, 30 hours, and 48 hours. The number of colonies grown on each plate was counted in order to determine antimicrobial activity.

[1] = time 0 hr, sample dilution 10^0
[2] = time 0 hr, sample dilution 10^−1
[3] = time 0 hr, sample dilution 10^−2
[4] = time 0 hr, sample dilution 10^−3
[5] = time 0 hr, sample dilution 10^−4
[6] = time 3 hr, sample dilution 10^0
[7] = time 3 hr, sample dilution 10^−1
[8] = time 3 hr, sample dilution 10^−2
[9] = time 3 hr, sample dilution 10^−3
[10] = time 3 hr, sample dilution 10^−4
[11] = time 6 hr, sample dilution 10^0
[12] = time 6 hr, sample dilution 10^−1
[13] = time 6 hr, sample dilution 10^−2
[14] = time 6 hr, sample dilution 10^−3
[15] = time 6 hr, sample dilution 10^−4
[16] = time 24 hr, sample dilution 10^0
[17] = time 24 hr, sample dilution 10^−1
[18] = time 24 hr, sample dilution 10^−2
[19] = time 24 hr, sample dilution 10^−3
[20] = time 24 hr, sample dilution 10^−4
[21] = time 27 hr, sample dilution 10^0
[22] = time 27 hr, sample dilution 10^−1
[23] = time 27 hr, sample dilution 10^−2
[24] = time 27 hr, sample dilution 10^−3
[25] = time 27 hr, sample dilution 10^−4
[26] = time 30 hr, sample dilution 10^0
[27] = time 30 hr, sample dilution 10^−1
[28] = time 30 hr, sample dilution 10^−2
[29] = time 30 hr, sample dilution 10^−3
[30] = time 30 hr, sample dilution 10^−4
[31] = time 48 hr, sample dilution 10^0
[32] = time 48 hr, sample dilution 10^−1
[33] = time 48 hr, sample dilution 10^−2
[34] = time 48 hr, sample dilution 10^−3
[35] = time 48 hr, sample dilution 10^−4

Row | SMILES | Pseudomonas bacterial cell count on coated silicone tubing (Pseudomonas spp. CTO7; [1]) [cfu/mL] | Pseudomonas bacterial cell count on coated silicone tubing (Pseudomonas spp. CTO7; [2]) [cfu/mL] | Pseudomonas bacterial cell count on coated silicone tubing (Pseudomonas spp. CTO7; [3]) [cfu/mL] | Pseudomonas bacterial cell count on coated silicone tubing (Pseudomonas spp. CTO7; [4]) [cfu/mL] | Pseudomonas bacterial cell count on coated silicone tubing (Pseudomonas spp. CTO7; [5]) [cfu/mL] | Pseudomonas bacterial cell count on coated silicone tubing (Pseudomonas spp. CTO7; [6]) [cfu/mL] | Pseudomonas bacterial cell count on coated silicone tubing (Pseudomonas spp. CTO7; [7]) [cfu/mL] | Pseudomonas bacterial cell count on coated silicone tubing (Pseudomonas spp. CTO7; [8]) [cfu/mL] | Pseudomonas bacterial cell count on coated silicone tubing (Pseudomonas spp. CTO7; [9]) [cfu/mL] | Pseudomonas bacterial cell count on coated silicone tubing (Pseudomonas spp. CTO7; [10]) [cfu/mL] | Pseudomonas bacterial cell count on coated silicone tubing (Pseudomonas spp. CTO7; [11]) [cfu/mL] | Pseudomonas bacterial cell count on coated silicone tubing (Pseudomonas spp. CTO7; [12]) [cfu/mL] | Pseudomonas bacterial cell count on coated silicone tubing (Pseudomonas spp. CTO7; [13]) [cfu/mL] | Pseudomonas bacterial cell count on coated silicone tubing (Pseudomonas spp. CTO7; [14]) [cfu/mL] | Pseudomonas bacterial cell count on coated silicone tubing (Pseudomonas spp. CTO7; [15]) [cfu/mL] | Pseudomonas bacterial cell count on coated silicone tubing (Pseudomonas spp. CTO7; [16]) [cfu/mL] | Pseudomonas bacterial cell count on coated silicone tubing (Pseudomonas spp. CTO7; [17]) [cfu/mL] | Pseudomonas bacterial cell count on coated silicone tubing (Pseudomonas spp. CTO7; [18]) [cfu/mL] | Pseudomonas bacterial cell count on coated silicone tubing (Pseudomonas spp. CTO7; [19]) [cfu/mL] | Pseudomonas bacterial cell count on coated silicone tubing (Pseudomonas spp. CTO7; [20]) [cfu/mL] | other results
1 | CN(C)c1cccc2c(S(=O)(=O)NCCC[N+](C)(C)CCCCOc3ccc(C(=O)c4ccccc4)cc3)cccc12 (as salt: bromide) [Compound 8a, 4-(4-benzoylphenoxy)-N-(3-(5-(dimethylamino)naphthalene-1-sulfonamido)propyl)-N,N-dimethylbutan-1-ammonium bromide] | – | – | – | – | – | – | – | – | – | – | – | – | – | – | – | – | – | – | – | – | melting point: 96 to 104 °C
2 | CCCCCCCCCCCCCCCCCC[N+](C)(C)CCCOc1ccc(C(=O)c2ccccc2)cc1 [Compound 4c] | 300 | 300 | 48 | 8 | 0 | 20 | 0 | 0 | 0 | 0 | 160 | 15 | 0 | 0 | 0 | 300 | 200 | 21 | 4 | 0 | Pseudomonas bacterial cell count on coated silicone tubing (Pseudomonas spp. CTO7; [21]): 300 cfu/mL; Pseudomonas bacterial cell count on coated silicone tubing (Pseudomonas spp. CTO7; [22]): 110 cfu/mL; Pseudomonas bacterial cell count on coated silicone tubing (Pseudomonas spp. CTO7; [23]): 11 cfu/mL; Pseudomonas bacterial cell count on coated silicone tubing (Pseudomonas spp. CTO7; [24]): 0 cfu/mL; Pseudomonas bacterial cell count on coated silicone tubing (Pseudomonas spp. CTO7; [25]): 0 cfu/mL; Pseudomonas bacterial cell count on coated silicone tubing (Pseudomonas spp. CTO7; [26]): 300 cfu/mL; Pseudomonas bacterial cell count on coated silicone tubing (Pseudomonas spp. CTO7; [27]): 70 cfu/mL; Pseudomonas bacterial cell count on coated silicone tubing (Pseudomonas spp. CTO7; [28]): 5 cfu/mL; Pseudomonas bacterial cell count on coated silicone tubing (Pseudomonas spp. CTO7; [29]): 0 cfu/mL; Pseudomonas bacterial cell count on coated silicone tubing (Pseudomonas spp. CTO7; [30]): 0 cfu/mL; Pseudomonas bacterial cell count on coated silicone tubing (Pseudomonas spp. CTO7; [31]): 289 cfu/mL; Pseudomonas bacterial cell count on coated silicone tubing (Pseudomonas spp. CTO7; [32]): 31 cfu/mL; Pseudomonas bacterial cell count on coated silicone tubing (Pseudomonas spp. CTO7; [33]): 0 cfu/mL; Pseudomonas bacterial cell count on coated silicone tubing (Pseudomonas spp. CTO7; [34]): 0 cfu/mL; Pseudomonas bacterial cell count on coated silicone tubing (Pseudomonas spp. CTO7; [35]): 0 cfu/mL
3 | CN(C)c1cccc2c(S(=O)(=O)NCCC[N+](C)(C)CCCCOc3ccc(C(=O)c4ccccc4)cc3)cccc12 [Compound 8a, 4-(4-benzoylphenoxy)-N-(3-(5-(dimethylamino)naphthalene-1-sulfonamido)propyl)-N,N-dimethylbutan-1-ammonium bromide] | 0 | 0 | 0 | 0 | 0 | 15 | 0 | 0 | 0 | 0 | 6 | 0 | 0 | 0 | 0 | 0 | 0 | 0 | 0 | 0 | Pseudomonas bacterial cell count on coated silicone tubing (Pseudomonas spp. CTO7; [21]): 30 cfu/mL; Pseudomonas bacterial cell count on coated silicone tubing (Pseudomonas spp. CTO7; [22]): 0 cfu/mL; Pseudomonas bacterial cell count on coated silicone tubing (Pseudomonas spp. CTO7; [23]): 0 cfu/mL; Pseudomonas bacterial cell count on coated silicone tubing (Pseudomonas spp. CTO7; [24]): 0 cfu/mL; Pseudomonas bacterial cell count on coated silicone tubing (Pseudomonas spp. CTO7; [25]): 0 cfu/mL; Pseudomonas bacterial cell count on coated silicone tubing (Pseudomonas spp. CTO7; [26]): 18 cfu/mL; Pseudomonas bacterial cell count on coated silicone tubing (Pseudomonas spp. CTO7; [27]): 4 cfu/mL; Pseudomonas bacterial cell count on coated silicone tubing (Pseudomonas spp. CTO7; [28]): 0 cfu/mL; Pseudomonas bacterial cell count on coated silicone tubing (Pseudomonas spp. CTO7; [29]): 0 cfu/mL; Pseudomonas bacterial cell count on coated silicone tubing (Pseudomonas spp. CTO7; [30]): 0 cfu/mL; Pseudomonas bacterial cell count on coated silicone tubing (Pseudomonas spp. CTO7; [31]): 27 cfu/mL; Pseudomonas bacterial cell count on coated silicone tubing (Pseudomonas spp. CTO7; [32]): 1 cfu/mL; Pseudomonas bacterial cell count on coated silicone tubing (Pseudomonas spp. CTO7; [33]): 0 cfu/mL; Pseudomonas bacterial cell count on coated silicone tubing (Pseudomonas spp. CTO7; [34]): 0 cfu/mL; Pseudomonas bacterial cell count on coated silicone tubing (Pseudomonas spp. CTO7; [35]): 0 cfu/mL
